Data from patent US7235559B1, “Therapeutic quinazoline derivatives” (AstraZeneca AB, priority 1999, dated 2007).

Experiments:
MCF-7 cells [1] = experiment: In Vitro cell proliferation assay, Assay 1 (CyQUANT cell density); assay type: cell-based; details: Homo sapiens, MCF7, 72 h, MCF-7, 3 days in presence of compound, read-out: concentration giving 50% inhibition of cell proliferation
Source text: (§1) These and other assays can be used to determine the ability of a test compound to inhibit the growth of adherent mammalian cell lines, for example the human tumour cell line MCF7.
MCF-7 (ATCC HTB-22) or other adherent cells were typically seeded at 1×10^3 cells per well (excluding the peripheral wells) in DMEM (Sigma Aldrich) without phenol red, plus 10% foetal calf serum, 1% L-glutamine and 1% penicillin/streptomycin in 96 well tissue culture treated clear plates (Costar). The following day (day 1), the media was removed from a no treatment control plate and the plate stored at −80° C. The remaining plates were dosed with compound (diluted from 10 mM stock in DMSO using DMEM (without phenol red, 10% FCS, 1% L-glutamine, 1% penicillin/streptomycin). Untreated control wells were included on each plate. After 3 days in the presence/absence of compound (day 4) the media was removed and the plates stored at −80° C. Twenty four hours later the plates were thawed at room temperature and cell density determined using the CyQUANT cell proliferation assay kit (c-7026/c-7027 Molecular Probes Inc.) according to manufacturers directions. Briefly, 200 μl of cell lysis/dye mixture (10 μl of 20× cell lysis buffer B, 190 μl of sterile water, 0.25 μl of CYQUANT GR dye) was added to each well and the plates incubated at room temperature for 5 minutes in the dark. […]

aurora2 kinase = molecular target: T1, aurora2 kinase (Homo sapiens, UniProt O14965); experiment: In Vitro aurora2 kinase inhibition test; assay type: biochemical
T1 construct: made in house; host or cells: Spodoptera frugiperda Sf21 insect cells (baculovirus)
T1 sequence (O14965 1-403): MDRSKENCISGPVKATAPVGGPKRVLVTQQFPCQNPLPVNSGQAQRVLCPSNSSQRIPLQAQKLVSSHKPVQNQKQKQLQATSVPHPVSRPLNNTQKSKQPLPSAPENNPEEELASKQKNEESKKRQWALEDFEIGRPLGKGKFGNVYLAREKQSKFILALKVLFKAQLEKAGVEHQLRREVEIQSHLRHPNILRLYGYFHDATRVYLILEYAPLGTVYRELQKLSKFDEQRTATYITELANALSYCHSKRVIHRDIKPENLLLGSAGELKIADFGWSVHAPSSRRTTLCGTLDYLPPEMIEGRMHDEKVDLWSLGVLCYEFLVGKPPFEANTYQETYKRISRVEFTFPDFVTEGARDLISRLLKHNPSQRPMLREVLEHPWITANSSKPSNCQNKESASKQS

MCF-7 cells [2] = experiment: In Vitro cell proliferation assay, Assay 2 (BrdU incorporation); assay type: cell-based; details: Homo sapiens, MCF7; MCF-7, 48 hours with compound, 2 hour BrdU labelling; read-out: concentration giving 50% inhibition of BrdU incorporation
Source text: as §1
This assay determines the ability of at test compound to inhibit the incorporation of the thymidine analogue, 5′-bromo-2′-deoxy-uridine (BrdU) into cellular DNA. MCF-7 or other adherent cells were typically seeded at 0.8×10^4 cells per well in DMEM (Sigma Aldrich) without phenol red, plus 10% foetal calf serum, 1% L-glutamine and 1% penicillin/streptomycin (50 μl/well) in 96 well tissue culture treated 96 well plates (Costar) and allowed to adhere overnight. […] The optical density of the wells was then determined at 690 nm wavelength using a Titertek Multiscan plate reader. […]

MCF7 cells = experiment: In Vitro cell cycle analysis assay (FACS); assay type: cell-based, human; details: 10 μM, 24 hours
Procedure: This assay determines the ability of a test compound to arrest cells in specific phases of the cell cycle. Many different mammalian cell lines could be used in this assay and MCF7 cells are included here as an example. MCF-7 cells were seeded at 3×10^5 cells per T25 flask (Costar) in 5 ml DMEM (no phenol red 10% FCS, 1% L-glutamine 1% penicillin/streptomycin). Flasks were then incubated overnight in a humidified 37° C. incubator with 5% CO2. The following day 1 ml of DMEM (no phenol red 10% FCS, 1% L-glutamine 1% penicillin/streptomycin) carrying the appropriate concentration of test compound solubilised in DMSO was added to the flask. A no compound control treatments was also included (0.5% DMSO). The cells were then incubated for a defined time (usually 24 hours) with compound. After this time the media was aspirated from the cells and they were washed with 5 ml of prewarmed (37° C.) sterile PBSA, then detached from the flask by brief incubation with trypsin and followed by resuspension in 10 ml of 1% Bovine Serum Albumin (BSA, Sigma-Aldrich Co.) in sterile PBSA. The samples were then centrifuged at 2200 rpm for 10 min. The supernatant was aspirated and the cell pellet was resuspended in 200 μl of 0.1% (w/v) Tris sodium citrate, 0.0564% (w/v) NaCl, 0.03% (v/v) Nonidet NP40, [pH 7.6]. Propridium Iodide (Sigma Aldrich Co.) was added to 40 μg/ml and RNAase A (Sigma Aldrich Co.) to 100 μg/ml. The cells were then incubated at 37° C. for 30 minutes. The samples were centrifuged at 2200 rpm for 10 min, the supernatant removed and the remaining pellet (nuclei) resuspended in 200 μl of sterile PBSA. […] The samples were then transferred to LPS tubes and DNA content per cell analysed by Fluorescence activated cell sorting (FACS) using a FACScan flow cytometer (Becton Dickinson). Typically 25000 events were counted and recorded using CellQuest v1.1 software (Verity Software). Cell cycle distribution of the population was calculated using Modfit software (Verity Software) and expressed as percentage of cells in G0/G1, S and G2/M phases of the cell cycle. […]

For `COc1cc2ncnc(Nc3cnc(NC(=O)c4ccccc4)nc3)c2cc1OC` [Compound 6], the IC50 (MCF-7 cells [1]) was 1700 nM, the IC50 (aurora2 kinase) was 7.85 nM and the IC50 (MCF-7 cells [2]) was 1920 to 2850 nM. For the same compound, the “% Cells in G1” value (MCF7 cells) was 43.22%, the “% Cells in G2/M” value (MCF7 cells) was 30.38% and the “% Cells in S” value (MCF7 cells) was 18%.
